Measured values from patent US20160058771A1, “ALPHA-2 ADRENOCEPTOR AND SIGMA RECEPTOR LIGAND COMBINATIONS” (LABORATORIOS DEL DR. ESTEVE, S.A., priority 2013, published 2016).
Entries after “also recorded” stand apart in the source; their conditions may differ. Where a name gives a salt, the structure may show the parent alone.

How the values were obtained:
male Swiss CD-1 mice [1] = experiment: Hot-plate test (50° C., latency to hind paw licking); assay type: in vivo; conditions: for analgesic effect (latency to hind paw licking): vs control, FIG. 6
Text: The hot plate is another classical test of acute thermal nociception. This test consists of introducing mice into an open-ended cylindrical space with a floor consisting of a metallic plate that is heated to a constant temperature. Typical behavioural responses in mice are paw-licking and jumping (Le Bars et al., 2001)
Male Swiss CD-1 mice weighing between 30 and 35 g (Charles River, Barcelona, Spain) were used for all the experiments. The drugs evaluated were the Sigma ligand Compound 63.HCl and the alpha-2 adrenergic agonists clonidine, guanfacine, and dexmedetomidine. Compound 63.HCl was injected intraperitoneally (i.p.) in a volume of 10 ml/kg in 0.5% hydroxypropyl methyl cellulose (HPMC), whereas clonidine, guanfacine and dexmedetomidine were administrated subcutaneously (s.c.) in saline, in a volume of 5 ml/kg. Control animals received the same volume of vehicle. The hot plate test was done 30 min after compound's administration. Mice were placed individually on the hot-plate at 50° C. and the reaction time starting from the placement of the mouse on the hot plate to the time of hind paw licking (HPL) was measured with a stopwatch. An independent untreated group of animals from each strain was used to evaluate the basal latencies and five times those values were chosen as the cut-off time to avoid tissue damage.
Data were expressed as means±S.E.M of the paw withdrawal latency (s).
(§1) In order to generate dose-response curves, raw data were converted to % maximum possible antinociceptive effect using the following equation:
(§2) % MPE=[(TL−VL)/(Cut off−VL)]·100
where MPE: maximum possible antinociceptive effect; TL: test latencies and VL: vehicle latency. 3.1. Effect of the Sigma Ligands Compound 63.HCl Alone or Combined with the Alpha-2 Agonist Clonidine

male Swiss CD-1 mice [2] = experiment: Tail-flick test (radiant heat, acute thermal pain); assay type: in vivo
Procedure: Tail-flick test is a classical model of acute thermal pain (D'Amour and Smith, 1941) Pain sensitivity is measured in response to a radiant heat beam focused on the mouse tail. Latency to the first pain response is recorded as a measure of thermal pain sensitivity. The withdrawal is a classic nocifensive reflex that removes the body apart from the source of pain.
Male Swiss CD-1 mice weighing between 30 and 35 g (Charles River, Barcelona, Spain) were used for all the experiments. The drugs evaluated were compound 63.HCl and clonidine hydrochloride and guanfacine, as alpha-2 adrenergic agonists. Compound 63.HCl was injected intraperitoneally (i.p.) in a volume of 10 ml/kg in 0.5% hydroxypropyl methyl cellulose (HPMC) and clonidine or guanfacine were administered subcutaneously (s.c.) dissolved in isotonic saline (0.9% NaCl) solution, in a volume of 5 ml/kg. Control animals received the same volume of vehicle.
Antinociception was assessed using the radiant heat tail-flick test as described by Moncada et al., 2003. Briefly, the animals were restrained in a Plexiglas tube and placed on the tail-flick apparatus. The radiant heat source was focused on the proximal portion of the tail at about […] of the tip. Vehicle tail-flick latency (VL) was determined using a stimulus intensity adjusted to elicit a mean reaction time in the range of 2-4 s. Following vehicle or compound administration, test latencies (TL) were obtained at 30 min. A cut off time of 10 s was employed in order to prevent tissue damage. All experiments were performed under blind conditions.
Data were expressed as means±S.E.M of the […] (s.).
as §1, §2
where MPE: maximum possible antinociceptive effect; TL: test latencies and VL: vehicle latency. 2.1. Effects of the Compound 63.HCl Alone or Combined with the Alpha-2 Agonist Clonidine

Cc1cccc([C@H](C)c2cnc[nH]2)c1C [dexmedetomidine]
analgesic effect (latency to hind paw licking) (male Swiss CD-1 mice [1]; dexmedetomidine alone 0.01 mg/kg s.c.): not effective compared to control group

Cc1cc(OCCN2CCOCC2)nn1-c1ccc2ccccc2c1 [compound 63.HCl, 4-{2-[5-methyl-1-(naphthalen-2-yl)-1H-pyrazol-3-yloxy]ethyl}morpholine hydrochloride]
effect on the dose-response curve of clonidine (male Swiss CD-1 mice [1]; Compound 63.HCl 40 mg/kg ip with clonidine 0.125-1 mg/kg sc, displacement to the left of the curve, FIG. 5): potentiated the antinociceptive effect of clonidine
antinociceptive effect (latency to hind paw licking) (male Swiss CD-1 mice [1]; Compound 63.HCl alone 40 mg/kg ip, 30 min before test, FIG. 4, FIG. 5, hydrochloride): failed to produce a statistically significant antinociceptive effect; also recorded: showed no activity
effect on the dose-response curve of clonidine (male Swiss CD-1 mice [2]; compound 63.HCl 40 mg/kg ip with clonidine 0.125-1 mg/kg sc, displacement to the left of the curve, FIG. 2): potentiates the antinociceptive effect of clonidine
antinociceptive effect (tail withdrawal latency) (male Swiss CD-1 mice [2]; compound 63.HCl alone, 5, 10 and 40 mg/kg ip, 30 min before test, vs vehicle, FIG. 1): failed to produce a statistically significant antinociceptive effect

Clc1cccc(Cl)c1N=C1NCCN1 [clonidine]
ED50 (male Swiss CD-1 mice [1]; Mus musculus, clonidine alone, sc, 0.125-1 mg/kg, FIG. 5, read-out: ED50 (50% effective dose of clonidine)): 0.3 mg/kg
ED50 (male Swiss CD-1 mice [2]; Mus musculus, clonidine alone, sc, 0.125-1 mg/kg, % MPE dose-response, FIG. 2, read-out: ED50 (50% effective dose of clonidine)): 0.18 mg/kg

N=C(N)NC(=O)Cc1c(Cl)cccc1Cl [guanfacine]
analgesic effect (latency to hind paw licking) (male Swiss CD-1 mice [1]; guanfacine alone 5 mg/kg s.c.): not effective compared to control group
analgesic effect (tail withdrawal latency) (male Swiss CD-1 mice [2]; guanfacine alone 1.25 mg/kg s.c., vs vehicle, FIG. 3): not effective compared to vehicle
